Test systems include NCI-H460 lung; A498 renal; PC-3 prostate; U251 CNS; HOP-62 NSCLC; T-47D breast; SF-539 CNS; HCC-2998 colon; ACHN renal; HOP-92 NSCLC.
Common to all, as to test: inhibition of tumour cell growth, NCI panel, 48 h

Each structure is given as a SMILES string. “And” between values parts separate entries of the source, which are not always exact repeats. Equal values may be shown once.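 Dose response: 5 concentrations. Exposure: 48 h. Format: 96-well plates. Endpoint: linear interpolation; highest concentration if not reached. GI50: concentration for 50% inhibition of growth. TGI is the concentration that stops growth completely.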

As for `O=C1NC(=NC(CO)Cc2ccccc2)S/C1=C\c1ccc2ncccc2c1` (stereo not given), the GI50 in the assay on NCI-H460 lung was 14.6 µM and 3.02 µM; in the assay with A498 renal, > 15.2 µM and 1.96 µM; in the assay with PC-3 prostate, > 25 µM and 3.9 µM; in the assay on U251 CNS, > 20.9 µM and 2.29 µM; with HOP-62 NSCLC, > 23.4 µM and 6.05 µM; with T-47D breast, 21.1 µM and 5.26 µM. Besides, the GI50 is 11.9 µM and 2.73 µM in the assay with SF-539 CNS; 13.9 µM and 8.02 µM in the assay with HCC-2998 colon; 11.2 µM and 3.55 µM with ACHN renal; 24.2 µM and 6.61 µM in the assay with HOP-92 NSCLC. Also, the TGI in the assay on NCI-H460 lung was more than 25 µM; with A498 renal, > 25 µM and 7.67 µM; in the assay on PC-3 prostate it was more than 25 µM; with U251 CNS, more than 25 µM; in the assay with HOP-62 NSCLC, more than 25 µM; with T-47D breast it was more than 25 µM. The TGI in the assay with SF-539 CNS is > 25 µM and 10.1 µM; in the assay with HCC-2998 colon it was more than 25 µM; with ACHN renal, more than 25 µM; with HOP-92 NSCLC, > 25 µM and 19.5 µM.
In the case of `CN(C)c1cc(NN=C(c2ccc(O)cc2)c2ccc(O)cc2)c([N+](=O)[O-])cc1[N+](=O)[O-]`, the GI50 with NCI-H460 lung was 4.36 µM; in the assay with A498 renal, 8.18 µM; with PC-3 prostate, 4.85 µM; in the assay on U251 CNS, 5.61 µM; in the assay with HOP-62 NSCLC, 10.5 µM; with T-47D breast it was 3.34 µM. Also, the GI50 is 11.8 µM in the assay on SF-539 CNS, 13.8 µM in the assay on HCC-2998 colon, 2.36 µM with ACHN renal and 10.2 µM in the assay on HOP-92 NSCLC. Also, the TGI worked out at 15.9 µM with NCI-H460 lung; 21.6 µM with A498 renal; 32.2 µM in the assay on PC-3 prostate; 18.3 µM in the assay on U251 CNS; 26.1 µM in the assay with HOP-62 NSCLC; 17.2 µM in the assay with T-47D breast. Moreover, the TGI in the assay with SF-539 CNS came out at 24.1 µM; in the assay on HCC-2998 colon it was 27.8 µM; in the assay with ACHN renal, 13.3 µM; in the assay with HOP-92 NSCLC, 25.4 µM.
On to `O=C(CCCSc1nc(-c2ccccc2)cc(-c2ccccc2)n1)NO`, for which the GI50 in the assay on NCI-H460 lung is 0.488 µM; in the assay with A498 renal, 1.12 µM; in the assay on PC-3 prostate, 1.72 µM; in the assay on U251 CNS it was 1.24 µM; in the assay with HOP-62 NSCLC, 0.671 µM; in the assay on T-47D breast it was 1.76 µM. Further, the GI50 is 1.92 µM in the assay with SF-539 CNS, 2.05 µM with HCC-2998 colon, 0.358 µM with ACHN renal and 1.58 µM in the assay with HOP-92 NSCLC. Moreover, the TGI is 11.2 µM in the assay with NCI-H460 lung; 3.1 µM in the assay with A498 renal; 13.6 µM in the assay with PC-3 prostate; 3.2 µM in the assay on U251 CNS; 4.4 µM with HOP-62 NSCLC; 22 µM with T-47D breast. For the same compound, the TGI with SF-539 CNS was 7.09 µM; in the assay with HCC-2998 colon it was 6.95 µM; with ACHN renal it was 1.5 µM; in the assay with HOP-92 NSCLC it was 6.13 µM.
As to `COc1cccc(C2SC(N)=Nc3c2c(C)nn3C(=O)c2ccccc2O)c1` (stereo not given), the TGI in the assay with NCI-H460 lung, in the assay with A498 renal, in the assay with PC-3 prostate, in the assay on U251 CNS, in the assay with HOP-62 NSCLC and with T-47D breast was more than 10 µM each time. Moreover, the TGI was more than 2.64 µM in the assay on SF-539 CNS, more than 10 µM in the assay on HCC-2998 colon, more than 10 µM in the assay on ACHN renal and more than 10 µM in the assay with HOP-92 NSCLC.
As to `CCC(=C/[C@H](C)C/C=C/C(C)=C/[C@@H](C)C(=O)[C@@H](C)[C@H](O)[C@@H](C)CC)/C=C/[C@H]1OC(=O)C=C[C@@H]1C`, the GI50 in the assay on NCI-H460 lung, in the assay with A498 renal, in the assay with PC-3 prostate, in the assay on U251 CNS, in the assay with HOP-62 NSCLC and in the assay on T-47D breast was less than 0.01 µM in each case. For the same compound, the GI50 with SF-539 CNS, in the assay on HCC-2998 colon, with ACHN renal and in the assay with HOP-92 NSCLC was less than 0.01 µM each time. In addition, the TGI in the assay with NCI-H460 lung was 1.88 µM; in the assay on A498 renal, less than 0.01 µM; with PC-3 prostate it was 3.04 µM; in the assay with U251 CNS, 1.36 µM; in the assay on HOP-62 NSCLC it was 1.01 µM; in the assay with T-47D breast, 4.88 µM. Also, the TGI in the assay with SF-539 CNS was less than 0.01 µM; in the assay on HCC-2998 colon, less than 0.01 µM; with ACHN renal, 0.566 µM; with HOP-92 NSCLC it was 1.2 µM.
For `COc1ccc2nc3cc(Cl)ccc3c(NCCNCC(C)O)c2c1` (stereo not given), the GI50 in the assay on NCI-H460 lung was 0.668 µM; with A498 renal it was 1.28 µM; in the assay on PC-3 prostate it was 2.33 µM; with U251 CNS, 1.99 µM; with HOP-62 NSCLC, 1.31 µM; in the assay with T-47D breast it was 2.16 µM. Moreover, the GI50 in the assay with SF-539 CNS was 1.65 µM; with HCC-2998 colon it was 1.38 µM; in the assay with ACHN renal, 1.43 µM; in the assay on HOP-92 NSCLC, 2.6 µM. In addition, the TGI with NCI-H460 lung was 2.99 µM; in the assay with A498 renal, 2.84 µM; in the assay on PC-3 prostate, 5.86 µM; with U251 CNS, 4.62 µM; with HOP-62 NSCLC, 4.09 µM; with T-47D breast it was 6.72 µM. Besides, the TGI worked out at 3.51 µM in the assay on SF-539 CNS, 2.94 µM with HCC-2998 colon, 7.22 µM in the assay with ACHN renal and 6.68 µM in the assay on HOP-92 NSCLC.
For `CC1(COc2ccc3c(c2)ncn3-c2ccc3cccc(N4CCC(N)CC4)c3n2)COC1`, the GI50 is 2.17 µM and 2.48 µM in the assay with NCI-H460 lung; 5.01 µM and 2.03 µM with A498 renal; 5.38 µM and 3.54 µM in the assay on PC-3 prostate; 1.7 µM and 1.87 µM in the assay on U251 CNS; 1.74 µM and 1.49 µM in the assay with HOP-62 NSCLC; 15.9 µM and > 10 µM in the assay with T-47D breast. Also, the GI50 in the assay with SF-539 CNS was 1.26 µM and 1.01 µM; in the assay on HCC-2998 colon, 2.7 µM and 2.25 µM; with ACHN renal, 2.61 µM and 2.24 µM; in the assay on HOP-92 NSCLC it was 10.3 µM and 3.27 µM. The TGI with NCI-H460 lung was 6.11 µM and 7.46 µM; in the assay with A498 renal, 10.7 µM and 4.27 µM; in the assay on PC-3 prostate, 21.6 µM and > 10 µM; in the assay with U251 CNS, 4.09 µM and 5.66 µM; in the assay with HOP-62 NSCLC, 6.59 µM and 9.02 µM; in the assay on T-47D breast, 30.5 µM and > 10 µM. Also, the TGI with SF-539 CNS was 2.65 µM and 2.59 µM; in the assay on HCC-2998 colon, 7.51 µM and 7.85 µM; with ACHN renal, more than 10 µM; with HOP-92 NSCLC it was 25.7 µM and > 10 µM.

The record behind these values is PubChem BioAssay (NCI).
